Reference: patent US8242152B2, “Use of 4-[(4-thiazolyl)phenoxy]alkoxy-benzamidine derivatives for the prophylaxis and treatment of osteoporosis” (Dong Wha Pharmaceutical Co., Ltd., priority 2001, dated 2012)

Experiments:
LTB4 receptor = LTB4 receptor (Homo sapiens, UniProt Q15722); assay: LTB4 receptor binding assay on human neutrophils ([3H]-LTB4); set-up: endogenous in cells; host or cells: human neutrophils (PMN) purified from fresh blood; conditions: 100 nM; versus DW1350
Experimental: Neutrophils (PMN) were purified from freshly drawn human blood by standard techniques or dextran T-500 sedimentation and centrifugation on Ficoll/Paquc (pharmacia) followed by hypotonic lysis of crythrocyte. The purified PMN were resuspended to a final concentration of 3×10^7 cells/ml in HESS (Hank's balanced salt solution, Gibco).
The assay was performed following the method described elsewhere (Brown. A. R.; Grccnham, N. C.; Burroughes, J. H.: Bradely, D. C. C.; Friend. R. H.; Burn, P. L.; Kraft. A.: Holmes, A. B.; Chem. Phys, Lett. 1992, 200, 1246). LTB4 receptor binding assay was performed in 12×75 mm polypropylene tubes containing 0.5 nM of [^3H]-LTB4 (200 Ci/mmol), competitive compound, and cells suspended in HBSS (3×10^6 cells) (final volume: 200 ul). The tubes were incubated on ice for 45 minutes. Free and PMN bound [^3H]-LTB4 were separated by filtration through Whatman GF/C filters. The filters were then washed three times with 5 ml of ice cold Tris buffer (pH 7.4). […] The radioactivity was measured by liquid scintillation spectrometry. The specific binding was determined as the count difference total binding and binding in the presence of 1000-fold excess of unlabeled LTB4 (Scontrol). The LTB4 binding activity was calculated from the percent inhibition of specific [^3H]-LTB4 binding at various concentrations (Ssample). […]

MC3T3-E1 cells = assay: Alkaline phosphatase (ALP) activity to measure osteoblast activity (Example 4); type: cell-based; conditions: 10^−8M; two weeks culture
Experimental: This experiment is designed to evaluate the differentiation and activity of osteoblast via ALP activity having a close relationship with osteoblastic bone formation (Y. Wada et al., Bone, 22,479-485, 1998).
MC3T3-E1 cells (3,000 cells/well) derived from osteoblast were placed on a 96 well plate and after 24-hour culture the media were changed with fresh medium containing various differentiation factors such as ascorbic acid (100 ug/ml) and β-glycerophosphatic acid (5 mM). The medium was also treated with test substances and the medium, containing differentiation factors and the specimen, was changed with a fresh medium every 3 days.
The culture was terminated after two weeks to measure ALP activity. With the removal of the supernatant, 0.5% Triton X-100 were added for the lysis of cells. 100 ul of p-nitrophenylphosphate (1.21 mM) was added to 50 ul of above mixture. The mixture was incubated at 37° C. for 30 mins and with the addition of 0.2N sodium hydroxide (50 ul), the reaction was terminated. The standard curve was indicated at the absorbance of 405 nm using p-nitrophenol as a standard material and then the absorbance of test substances, so reacted, was measured to observe the production amount of p-nitrophenol.
As shown in the following table 4, the units of ALP activity were determined as the amount of p-nitrophenol (nM) produced per time (per min or hour)/1 ug protein after measuring the amounts of protein contained in the reaction mixture of each test substance.

[1] = test system: LTB4-induced osteoclast formation; assay: LTB4-induced osteoclast formation in rabbit osteoclast cultures, co-treatment and pre-treatment (Example 6); type: cell-based; conditions: dentin slices
Experimental: Rabbit osteoclasts were isolated as described by Victoria Tai's report (Doctoral Dissertation, 1997, Graduate Department of Pharmacology, University of Toronto) and Rraser P. Coxon et al. (Methods in Molecular Medicine, vol 80). Neonatal rabbits (New Zealand White) were sacrificed by ether-inhaling method under a hood. The removed long bones were dissected free of attached soft tissues and placed into ice-cold PBS. The long bones were cut longitudinally and mechanically curetted in 10 ml medium 199 with antibiotics (10 ug/ml penicillin G and 50 ug/ml gentamycin) in a glass Petri dish. Each bone was curetted with a scalpel blade and was finely minced. The fragments were then vigorously agitated by pipetting up and down using a pasteur pipette and vortex-mixed for 30 seconds. The fragments were allowed to settle and the cell suspension was then transferred to a 50 ml tube and the previous step repeated three times to a total volume of 40 ml. The bone fragments were allowed to settle (>1 min). The cell suspension was then transferred to a new 50 ml tube, passed through a 40 um cell strainer and centrifuged at 200 g for 8 minutes. The supernatant was removed and the pellet was immediately resuspended in α-MEM with 2% FBS (bicarbonate buffered medium).
40 uL droplets of osteoclast-containing suspensions were plated onto 60 mm tissue culture plastic dishes or on dentine slices in 96-well microtiter plates in 2% medium. The cells were allowed ninety minutes for attachment before the addition of 2 mL α-MEM with 2% FBS. After 24 hr culture, cells were washed to remove non-adherent cells and replaced with fresh medium as describes below.
After 24 hr in culture, the medium was removed and replaced with fresh medium containing both LTB4 receptor antagonist (1000 nM) and LTB4 (100 nM) or both DW1350 (1000 nM) and LTB4 (100 nM). The cultures were continued for an additional 48 hrs.
After 6 hrs in culture, the medium was removed and cells were pretreated with LTB4 receptor antagonists such as LY292728 (Journal of Medical Chemistry, 1995, vol. 38, No. 10, p 4411-4432), SB209247 (Journal of Medical Chemistry, 1996, vol. 39, No. 19, p 3837-3841), LY293111(Journal of Medical Chemistry, 1995, vol. 38, No. 10, p 4411-4432) and LY223982 (Journal of Medical Chemistry, 1993, vol. 36, p 3333-3340) or DW1350-containing medium and culture continued for 18 hrs. The medium was replaced with medium containing both LTB4 receptor antagonist and LTB4 or DW1350 and LTB4. The cultures were continued for an additional 48 hrs.
All cells were cultured at 37° C. in a humidified atmosphere of 95% air and 5% CO2 in bicarbonate buffered medium at pH 7.4.
Differentiated osteoclasts are multinucleated cells and have specific enzyme activity, such as ‘tartrate-resistant acid phosphatase (TRAP)’. Therefore, Osteoclast formation was determined by counting the number of TRAP-positive multinucleated cells (TRAP(+) MNCs).
After culture, the cells were fixed with 10% neutral buffered formalin for 30 min at 4° C., washed twice in distilled water and stained for TRAP activity by incubating with substrate. The number of TRAP(+)MNC with more than 2 nuclei was counted under photomicroscope.
Results were expressed as mean number of TRAP(+)MNC±SD of All experiments were done at least twice. Statistical analysis was performed for each experiment by student t-test.

LTB4 receptor, sequence (Q15722 whole entry): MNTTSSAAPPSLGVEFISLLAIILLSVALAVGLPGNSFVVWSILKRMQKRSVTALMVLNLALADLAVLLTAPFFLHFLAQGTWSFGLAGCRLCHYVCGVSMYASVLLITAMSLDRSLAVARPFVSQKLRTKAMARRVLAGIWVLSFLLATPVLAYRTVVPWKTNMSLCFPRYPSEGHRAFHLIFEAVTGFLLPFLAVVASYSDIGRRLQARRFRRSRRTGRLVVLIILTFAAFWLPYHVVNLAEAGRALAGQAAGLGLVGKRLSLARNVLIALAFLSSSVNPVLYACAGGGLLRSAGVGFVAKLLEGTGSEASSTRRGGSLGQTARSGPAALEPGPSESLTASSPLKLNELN

`Cc1nc(-c2ccc(OCCCCOc3ccc(C(=N)N)cc3)cc2)c(C(C)C)s1` [DW1351, 4-{4-[4-(5-isopropyl-2-methyl-1,3-thiazol-4-yl)phenoxy]butoxy}-benzamidine] was tested, and the “times the inhibition of LTB4 receptor binding of DW1350” value (LTB4 receptor) was “more than eight times”.

In the case of `COc1cc(C(=O)N(C(C)C)C(C)C)ccc1OCCCCOc1ccc2c(N)noc2c1` [HS1141, N,N-diisopropyl-4-[4-(3-aminobenzo[d]isooxazole-6-yloxy)butoxy]-3-methoxybenzamide], the “ALP activity (units)” value (MC3T3-E1 cells) is reported as 15.2 units.

`Cc1nc(-c2ccc(OCCCCOc3ccc(C(=N)NO)cc3)cc2)c(C(C)C)s1` [DW1349, N— hydroxy-4-{4-[4-(5-isopropyl-2-methyl-1,3-thiazol-4-yl)phenoxy]butoxy}-benzamidine] was tested, and the “times the inhibition of LTB4 receptor binding of DW1350” value (LTB4 receptor) was “more than three times”.

In the case of `Cc1nc(-c2ccc(OCCCCCOc3ccc(C(=N)NO)cc3)cc2)c(C(C)C)s1` [DW1350, N-hydroxy-4-{5-[4-(5-isopropyl-2-methyl-1,3-thiazol-4-yl)phenoxy]pentoxy}-benzamidine], the “ALP activity (units)” value (MC3T3-E1 cells) is reported as 19.8 units, the LTB4-stimulated osteoclast formation ([1]; pre-treatment 18 hrs, then 1000 nM compound + 100 nM LTB4 for 48 hrs) is reported as “significant inhibition on LTB4-stimulated osteoclast formation” and the LTB4-stimulated osteoclast formation ([1]; simultaneous treatment: 1000 nM compound + 100 nM LTB4, 48 hrs) is reported as “significant inhibition on LTB4-stimulated osteoclast formation”.

In the case of “4-[5-[4-(aminoiminomethyl)phenoxy]pentoxy]-3-methoxy-N,N-bis(1-methylethyl)benzamide maleic acid [CGS-25019C]”, the “ALP activity (units)” value (MC3T3-E1 cells) is reported as 15.0 units.

With `Cc1nc(-c2ccc(OCCCCCOc3ccc(C(=N)N)cc3)cc2)c(C(C)C)s1` [DW1352, 4-{5-[4-(5-isopropyl-2-methyl-1,3-thiazol-4-yl)phenoxy]pentoxy}-benzamidine] the “ALP activity (units)” value (MC3T3-E1 cells) was 17.1 units.
